Results as given in US9284283B2, “Macrocyclic compounds for modulating IL-17” (ENSEMBLE THERAPEUTICS CORPORATION, priority 2012, dated 2016).

target: T1, recombinant human IL17a (binding to its receptor IL17R) (Homo sapiens, UniProt Q16552); experiment: IL-17 competition ELISA I (IL17a coated, IL17R/Fc binding); conditions: not given
T1 construct: purchased R&D Systems 317-ILB (IL17a); 177-IR (IL17R/Fc)
T1 sequence (Q16552 20-155 limits assumed): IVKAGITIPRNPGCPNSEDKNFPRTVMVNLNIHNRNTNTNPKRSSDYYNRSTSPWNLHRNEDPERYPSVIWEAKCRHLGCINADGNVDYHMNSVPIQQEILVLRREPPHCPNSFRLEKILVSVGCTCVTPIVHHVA
Method in brief: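 Plates coated with 20 nM recombinant human IL17a received compound dilutions and 12 nM IL17R/Fc (final) for 30 min at room temperature. Bound receptor was detected with HRP anti-human Fc and TMB, read at 450 nm. IC50 came from a 4-parameter logistic fit between no-competitor and blank controls.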

Q: `COC(=O)[C@@H]1CCCCNC(=O)CCCNC(=O)[C@@H](Cc2ccc(NC(=O)[C@H](Cc3ccccc3F)NC(=O)Cc3ccccc3)cc2)NC(=O)CC2(CCCC2)CC(=O)N1` [Compound 106] was tested. Which IC50 did it give?
A: 100 to 1000 nM

Q: With `COC(=O)[C@@H]1CCCCNC(=O)CNC(=O)[C@@H](Cc2ccc(NC(=O)[C@H](Cc3ccccc3Cl)NC(=O)Cc3ccccc3)cc2)NC(=O)CC2(CCCC2)CC(=O)N1` [Compound 143] as the compound, how does the IC50 read?
A: < 100 nM

Q: How did the IC50 turn out when `COC(=O)[C@@H]1CCCCNC(=O)CNC(=O)[C@@H](Cc2ccc(NC(=O)[C@H](Cc3ccccc3Cl)NC(=O)c3ccccc3)cc2)NC(=O)CC2(CCCC2)CC(=O)N1` [Compound 144] was run?
A: < 100 nM

Q: Which IC50 does the source give for `O=C1CNC(=O)[C@@H](Cc2ccc(NC(=O)[C@H](Cc3ccccc3Cl)NC(=O)Cc3ccccc3)cc2)NC(=O)CC2(CCCC2)CC(=O)NCCCCCN1` [Compound 159] here?
A: < 100 nM

Q: With `O=C1CNC(=O)[C@@H](Cc2ccc(NC(=O)[C@H](Cc3ccc(Cl)cc3Cl)NC(=O)Cc3ccccc3)cc2)NC(=O)CC2(CCCC2)CC(=O)NCCCCCN1` [Compound 185] as the compound, how does the IC50 read?
A: < 100 nM

Q: How did the IC50 turn out when `O=C1CNC(=O)[C@@H](Cc2ccc(NC(=O)[C@H](Cc3ccccc3Cl)NC(=O)Cc3ccccn3)cc2)NC(=O)CC2(CCCC2)CC(=O)NCCCCCN1` [Compound 226] was run?
A: < 100 nM

Q: How did the IC50 turn out when `O=C1CNC(=O)[C@@H](Cc2ccc(NC(=O)[C@H](Cc3ccc(Cl)cc3Cl)NC(=O)Cc3ccc(O)cc3)cc2)NC(=O)CC2(CCCC2)CC(=O)NCCCCCN1` [Compound 191] was run?
A: < 100 nM

Q: How did the IC50 turn out when `O=C1CNC(=O)[C@@H](Cc2ccc(NC(=O)[C@H](Cc3ccccc3Cl)NC(=O)c3cccnc3)cc2)NC(=O)CC2(CCCC2)CC(=O)NCCCCCN1` [Compound 194] was run?
A: < 100 nM

Q: Which IC50 does the source give for `O=C1CNC(=O)[C@@H](Cc2ccc(NC(=O)[C@@H](NC(=O)Cc3ccccc3)C3CCCCC3)cc2)NC(=O)CC2(CCCC2)CC(=O)NCCCCCN1` [Compound 186] here?
A: < 100 nM

target: T2, IL17A (Homo sapiens, UniProt Q16552); experiment: Surface Plasmon Resonance (SPR) analysis of compound interactions with IL17A; conditions: SPR binding to IL17A
T2 sequence (Q16552 24-155): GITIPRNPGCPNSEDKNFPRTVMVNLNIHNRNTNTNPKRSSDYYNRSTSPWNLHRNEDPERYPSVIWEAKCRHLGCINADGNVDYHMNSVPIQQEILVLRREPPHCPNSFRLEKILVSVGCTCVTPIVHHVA
Method in brief: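 His-tagged IL17A captured on a Ni-NTA chip; five 2- or 3-fold compound dilutions from 50 μM injected for 180 s, 120 s dissociation, in HEPES-saline buffer with 0.5% DMSO. Baseline-subtracted sensorgrams fitted 1:1 for ka, kd and KD; Kd also derived from binding extent per concentration.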

Q: With `COC(=O)[C@@H]1CCCCNC(=O)CCCNC(=O)[C@@H](Cc2ccc(NC(=O)[C@H](Cc3ccccc3F)NC(=O)Cc3ccccc3)cc2)NC(=O)CC2(CCCC2)CC(=O)N1` [Compound 106] as the compound, how does the Kd read?
A: 100 to 1000 nM

Q: How did the Kd turn out when `COC(=O)[C@@H]1CCCCNC(=O)CNC(=O)[C@@H](Cc2ccc(NC(=O)[C@H](Cc3ccccc3Cl)NC(=O)Cc3ccccc3)cc2)NC(=O)CC2(CCCC2)CC(=O)N1` [Compound 143] was run?
A: < 100 nM

Q: Which Kd does the source give for `COC(=O)[C@@H]1CCCCNC(=O)CNC(=O)[C@@H](Cc2ccc(NC(=O)[C@H](Cc3ccccc3Cl)NC(=O)c3ccccc3)cc2)NC(=O)CC2(CCCC2)CC(=O)N1` [Compound 144] here?
A: < 100 nM

Q: For `O=C1CNC(=O)[C@@H](Cc2ccc(NC(=O)[C@H](Cc3ccccc3Cl)NC(=O)Cc3ccccc3)cc2)NC(=O)CC2(CCCC2)CC(=O)NCCCCCN1` [Compound 159], which Kd is on record?
A: < 100 nM

Q: For `O=C1CNC(=O)[C@@H](Cc2ccc(NC(=O)[C@H](Cc3ccc(Cl)cc3Cl)NC(=O)Cc3ccccc3)cc2)NC(=O)CC2(CCCC2)CC(=O)NCCCCCN1` [Compound 185], which Kd is on record?
A: < 100 nM

Q: Which Kd does the source give for `O=C1CNC(=O)[C@@H](Cc2ccc(NC(=O)[C@H](Cc3ccccc3Cl)NC(=O)Cc3ccccn3)cc2)NC(=O)CC2(CCCC2)CC(=O)NCCCCCN1` [Compound 226] here?
A: < 100 nM

Q: For `O=C1CNC(=O)[C@@H](Cc2ccc(NC(=O)[C@H](Cc3ccc(Cl)cc3Cl)NC(=O)Cc3ccc(O)cc3)cc2)NC(=O)CC2(CCCC2)CC(=O)NCCCCCN1` [Compound 191], which Kd is on record?
A: < 100 nM

Q: With `O=C1CNC(=O)[C@@H](Cc2ccc(NC(=O)[C@H](Cc3ccccc3Cl)NC(=O)c3cccnc3)cc2)NC(=O)CC2(CCCC2)CC(=O)NCCCCCN1` [Compound 194] as the compound, how does the Kd read?
A: < 100 nM

Q: Which Kd does the source give for `O=C1CNC(=O)[C@@H](Cc2ccc(NC(=O)[C@@H](NC(=O)Cc3ccccc3)C3CCCCC3)cc2)NC(=O)CC2(CCCC2)CC(=O)NCCCCCN1` [Compound 186] here?
A: < 100 nM
